PubChem BioAssay AID1919009 (Molecular Pharmacology Branch, DTP, NCI, 2023)
pIC50: −log10 of the molar value.

Test system: K24384-001-R-PDC complex spheroid growth
Assay: Anticancer human tumor K24384-001-R-PDC patient-derived pancreatic adenocarcinoma cell line growth inhibition [AhR]
Conditions: for viability, T/C: stronger effect = lower value
How it was run: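 Spheroids combined tumor cells with HUVEC endothelial cells and human MSCs as stroma. AhR antagonists were paired with standard or investigational drugs, each dosed in half-log steps down from near clinical Cmax, or from 10 microM where Cmax was unknown.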

[1] = curve of first compound, second compound 0.1 µM
[2] = curve of first compound, second compound 0.316 µM
[3] = curve of first compound, second compound 1 µM
[4] = curve of first compound, second compound 3.16 µM
[5] = curve of first compound, second compound 10 µM
[6] = second compound 0.1 µM, first compound 0.0316 µM
[7] = second compound 0.1 µM, first compound 0.1 µM
[8] = second compound 0.1 µM, first compound 0.316 µM
[9] = second compound 0.1 µM, first compound 1 µM
[10] = second compound 0.316 µM, first compound 0.0316 µM
[11] = second compound 0.316 µM, first compound 0.1 µM
[12] = second compound 0.316 µM, first compound 0.316 µM
[13] = second compound 0.316 µM, first compound 1 µM
[14] = second compound 1 µM, first compound 0.0316 µM
[15] = second compound 1 µM, first compound 0.1 µM
[16] = second compound 1 µM, first compound 0.316 µM
[17] = second compound 1 µM, first compound 1 µM
[18] = second compound 3.16 µM, first compound 0.0316 µM
[19] = second compound 3.16 µM, first compound 0.1 µM
[20] = second compound 3.16 µM, first compound 0.316 µM
[21] = second compound 3.16 µM, first compound 1 µM
[22] = second compound 10 µM, first compound 0.0316 µM
[23] = second compound 10 µM, first compound 0.1 µM
[24] = second compound 10 µM, first compound 0.316 µM
[25] = second compound 10 µM, first compound 1 µM
[26] = second compound 0.1 µM, first compound 3.16 µM
[27] = second compound 0.1 µM, first compound 10 µM
[28] = second compound 0.316 µM, first compound 3.16 µM
[29] = second compound 0.316 µM, first compound 10 µM
[30] = second compound 1 µM, first compound 3.16 µM
[31] = second compound 1 µM, first compound 10 µM
[32] = second compound 3.16 µM, first compound 3.16 µM
[33] = second compound 3.16 µM, first compound 10 µM
[34] = second compound 10 µM, first compound 3.16 µM
[35] = second compound 10 µM, first compound 10 µM
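Throughout, for viability, T/C: percent of DMSO vehicle-treated spheroid viability set as 100%.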

Row | Compound | pIC50 [1] | pIC50 [2] | pIC50 [3] | pIC50 [4] | pIC50 [5] | viability, T/C [6] | viability, T/C [7] | viability, T/C [8] | viability, T/C [9] | viability, T/C [10] | viability, T/C [11] | viability, T/C [12] | viability, T/C [13] | viability, T/C [14] | viability, T/C [15] | viability, T/C [16] | viability, T/C [17] | viability, T/C [18] | viability, T/C [19] | viability, T/C [20] | other results
1 | Nc1ncn(C2CC(O)C(CO)O2)c(=O)n1 (stereo unspecified) + Cc1cncc(-c2nc(NCCc3c[nH]c4ccccc34)c3ncn(C(C)C)c3n2)c1 | < 6.00 | < 6.00 | < 6.00 | < 6.00 | > 8.50 | 92.8% | 77.5% | 62.8% | 51.1% | 95.8% | 77.7% | 72.2% | 63.6% | 103% | 82.5% | 99.4% | 66% | 87.8% | 66.8% | 67.9% | viability, T/C (second compound 0.1 µM, first compound 0.00316 µM): 83.2%; viability, T/C (second compound 0.1 µM, first compound 0.01 µM): 97.6%; viability, T/C (second compound 0.316 µM, first compound 0.00316 µM): 91.1%; viability, T/C (second compound 0.316 µM, first compound 0.01 µM): 101%; viability, T/C (second compound 1 µM, first compound 0.00316 µM): 80.2%; viability, T/C (second compound 1 µM, first compound 0.01 µM): 101%; viability, T/C (second compound 3.16 µM, first compound 0.00316 µM): 83.1%; viability, T/C (second compound 3.16 µM, first compound 0.01 µM): 100%; viability, T/C [21]: 70.2%; viability, T/C (second compound 10 µM, first compound 0.00316 µM): 13.3%; viability, T/C (second compound 10 µM, first compound 0.01 µM): 14.3%; viability, T/C [22]: 14.8%; viability, T/C [23]: 10.8%; viability, T/C [24]: 8.89%; viability, T/C [25]: 11.4%
2 | COc1ccc([C@@H](O)c2cc(-c3ncnc4cc(N5CCOCC5)ccc34)c(F)cc2Cl)nn1 + CC(CO)NC(=O)c1cc(-c2ccc(Cl)cc2)nn(-c2cnn(C)c2)c1=O | 5.14 | 5.41 | 5.55 | 5.53 | 5.83 | 90.1% | 82.7% | 97.6% | 75.7% | 103% | 99.5% | 85.2% | 67.6% | 86.6% | 90% | 81.1% | 66.3% | 74.5% | 69.7% | 80.4% | viability, T/C [26]: 69.2%; viability, T/C [27]: 43%; viability, T/C [28]: 55.1%; viability, T/C [29]: 37%; viability, T/C [30]: 49%; viability, T/C [31]: 35.8%; viability, T/C [21]: 66%; viability, T/C [32]: 49.2%; viability, T/C [33]: 33.8%; viability, T/C [22]: 71.3%; viability, T/C [23]: 75.2%; viability, T/C [24]: 68.2%; viability, T/C [25]: 52.1%; viability, T/C [34]: 42.5%; viability, T/C [35]: 28.9%
3 | Cc1ccccc1N=Nc1ccc(NC(=O)c2ccnn2C)c(C)c1 |  |  |  |  |  |  |  |  |  |  |  |  |  |  |  |  |  |  |  |  | pIC50 (compound alone, run of 06/14/2022): < 5.00

Continued, in another order:

Row | pIC50 [1] | pIC50 [2] | pIC50 [3] | pIC50 [4] | pIC50 [5] | Compound | viability, T/C [6] | viability, T/C [7] | viability, T/C [8] | viability, T/C [9] | viability, T/C [10] | viability, T/C [11] | viability, T/C [12] | viability, T/C [13] | viability, T/C [14] | viability, T/C [15] | viability, T/C [16] | viability, T/C [17] | viability, T/C [18] | viability, T/C [19] | viability, T/C [20] | other results
4 | 6.24 | 6.18 | 6.12 | 6.08 | 5.93 | Nc1ccn(C2OC(CO)C(O)C2(F)F)c(=O)n1 (stereo unspecified) + CC(CO)NC(=O)c1cc(-c2ccc(Cl)cc2)nn(-c2cnn(C)c2)c1=O | 81.9% | 90.8% | 65.8% | 35.6% | 92.2% | 92.5% | 70.7% | 38.6% | 90.9% | 77.4% | 69.8% | 45.3% | 77.5% | 79.8% | 72.4% | viability, T/C [26]: 31.8%; viability, T/C [27]: 28.1%; viability, T/C [28]: 30.7%; viability, T/C [29]: 27%; viability, T/C [30]: 26.7%; viability, T/C [31]: 26.4%; viability, T/C [21]: 45.6%; viability, T/C [32]: 30.1%; viability, T/C [33]: 24.8%; viability, T/C [22]: 82.9%; viability, T/C [23]: 80.5%; viability, T/C [24]: 81.6%; viability, T/C [25]: 52.3%; viability, T/C [34]: 36%; viability, T/C [35]: 33.9%
5 | < 5.00 | < 5.00 | < 5.00 | < 5.00 | < 5.00 | CC(C)c1c(-c2ccccc2)nc2c(C#N)c[nH]n2c1=O + CC(CO)NC(=O)c1cc(-c2ccc(Cl)cc2)nn(-c2cnn(C)c2)c1=O | 118% | 122% | 76.2% | 99.7% | 116% | 107% | 89.4% | 96.8% | 92.7% | 80% | 94.2% | 64.7% | 63.2% | 75.1% | 79.8% | viability, T/C [26]: 92.2%; viability, T/C [27]: 80.8%; viability, T/C [28]: 73%; viability, T/C [29]: 78.3%; viability, T/C [30]: 72.1%; viability, T/C [31]: 72.8%; viability, T/C [21]: 64%; viability, T/C [32]: 68.7%; viability, T/C [33]: 63.5%; viability, T/C [22]: 77.5%; viability, T/C [23]: 74.4%; viability, T/C [24]: 62.5%; viability, T/C [25]: 60.6%; viability, T/C [34]: 52.3%; viability, T/C [35]: 61.6%
